# Patent US5656603A (Loyola University of Chicago, priority 1995, dated 1997)
# “And” between values parts separate entries of the source, which are not always exact repeats. Identical values can stand only once. Like-named read-outs stand apart in the source and are kept apart here.
# Columns and labels:
# [1] = tested on: [3H]-bradykinin degradation in the isolated perfused rat lung; test: [3H]-bradykinin degradation in the isolated perfused rat lung (HPLC of perfusate)
# Description: Using the procedure described herein, under Experimental Procedures it was determined that aminopeptidase P contributed to Bk degradation in the mammalian lung. In that procedure, [^3 H]-Bk (labelled in Pro^2 and Pro^3) was perfused through the isolated lung in the presence or absence of various peptidase inhibitors. The perfusate was then analyzed for radiolabelled products by HPLC. […] Most of the radioactivity (an average of 79%) was in the form of [^3 H]-Pro-Pro [Bk(2-3)] with the remainder being [^3 H]-Bk(1-5). It was hypothesized that pulmonary vascular aminopeptidase P was cleaving the Arg'-Pro^2 bond followed by rapid removal of Pro-Pro by dipeptidylpeptidase IV (DPP IV) (12). Simultaneously, angiotensin converting enzyme (ACE) was sequentially removing Phe-Arg and Ser-Pro from the C-terminus (13). […] However, most of the radioactivity remained in the Pro-Pro peak indicating substantial cleavage of Bk at the N-terminal end.
# Perfusion of the Isolated Rat Lung--Male Sprague Dawley rats, weighing 300-500 grams, were anesthetized with sodium pentobarbital (50-75 mg/kg) given by intraperitoneal injection. The trachea was cannulated and the lungs ventilated with air at 70 cycles per minute (Harvard Small Animal Ventilator) at a pressure of 70 mm H2 O. The heart and lungs were exposed via midsternal incision and 1000 units of heparin were administered intracardially. Polyethylene cannulae were secured into the pulmonary artery and the left ventricle. A modified Krebs buffer (118.5 mM NaCl, 4.7 mM KCl, 1.1 mM KH2 PO4, 1.1 mM MgSO4, 2.5 mM CaCl2, 19.6 mM NaHCO3, 5.6 mM dextrose), which was kept in a 50° C. water bath and aerated with 95% O2 -5% CO2 to pH 7.35, was perfused into the pulmonary artery at 35° C. and 2.6 ml/min (LKB Microperplex peristaltic pump). The buffer was circulated through the isolated lung in situ until the effluent was free of blood. The surgical field was maintained at 37° .C with a heat lamp throughout the procedure. Experiments were conducted by introducing [^3 H]-Bk in the presence or absence of test peptidase inhibitors into the pulmonary circulation via the pulmonary artery and then collecting perfusion effluent from the left ventricular cannula. […] The lung was then perfused with 1 μCi [^3 H]-Bk in 1 ml of the inhibitor solution (giving 16 nM Bk) followed by inhibitor solution alone. Effluent was collected in tubes (0.5 min/fraction) containing 150 μl of 2% TFA. For each lung preparation, 5-6 samples were perfused over a period of about one hour. Control perfusions of [^3 H]-Bk alone were always carried out before perfusions of samples containing ramiprilat because of the slow reversibility of inhibition of ACE by this compound. […] The effects of the latter two inhibitors were reversible.
# Separation and Identification of Bradykinin Metabolites--The fractions which were collected from each perfusion sample run were counted for radioactivity, and the fraction having the highest radioactive counts was prepared for HPLC by filtration through a Centricon-10 microconcentrator (Amicon). An aliquot of the filtrate containing 25000 dpm (approx. 25 μl) was spiked with a cocktail of unlabelled Bk fragments (3 μl) and then subjected to HPLC using a Waters Radial Compression Separation System with a 5μ NOVA PAK C18 Radial Pak Cartridge. The column was developed at a flow rate of 1 ml/min with a 60 min linear gradient from 100% Solvent A (0.1% TFA in water) to 75% Solvent A: 25% Solvent B (0.08% TFA in acetonitrile) using a Spectra Physics 8700XR Solvent Delivery System. The column effluent was simultaneously monitored for absorbance at 206 nm (LKB Uvicord S) and for radioactivity (Radiomatic Flo-One HS Radioactive Flow Detector using Ultima-Flo M scintillation fluid from Packard, Meriden, Conn.). […] Radioactive peaks were identified by comparison of the retention times to those of the unlabelled standards. […]
# [2] = tested on: blood pressure response to Bk; settings: rat, cited from earlier work
compound,measurement,setting,value
"C[C@H](NC(=O)[C@@H]1CCCN1C(=O)[C@@H]1CCCN1C(=O)[C@@H](O)[C@H](N)Cc1ccccc1)C(N)=O [apstatin, N-[(2S, 3R)-3-amino-2-hydroxy-4-phenylbutanoyl]-L-prolyl-L-prolyl-Lalaninamide]",percentage of radioactivity eluting from the lung as intact [3H]-Bk,"[1]; apstatin 40 μM together with ramiprilat (0.5 μM), mean ± SEM, three rats",92±4% and 92%
same,percentage of radioactivity eluting from the lung as intact [3H]-Bk,"[1]; apstatin alone (data not shown), difficult to quantitate accurately",1-3%
same,effect on blood pressure decrease caused by intravenous administration of Bk,[2]; apstatin alone,significantly potentiate the magnitude as well as the duration
same,effect on blood pressure decrease caused by intravenous administration of Bk,[2]; apstatin plus lisinopril versus lisinopril alone,more effective in this regard than lisinopril alone
